Assay results reported in patent US20230151069A1, “Cyclic Peptides” (LIFEARC, priority 2020, published 2023).
Where two headings read alike, the source gives them in different places. *1 amine or outer side, *2 acyl side, *3 side chain or, on linkers, in order; H or OH if unused. Where a SMILES comes first, the peptide text is derived from it. Bridges are numbered along the chain shown (N, C = ends). CH2 = C([*:1])[*:2]

Assays:
[1] = tested on: thioacetal bridged 1-14 cyclic peptide 3,12; assay: Immunisation with thioacetal bridged peptide, sera binding ELISA to thioacetal bridged cyclic peptide; assay type: in vivo, rabbits and mice
Experimental: (§1) • 1. […] Incubate at 4° C. overnight • 3. Wash the plate (NUNC 384 program) • 4. […] Incubate at RT for 1 hour • 6. Wash the plate (NUNC 384 program) • 7. […] Incubate at 4° C. overnight • 9. Wash the plate (NUNC 384 program) • 10. […] Transfer 30 μL/well onto the assay plate • 12. Incubate at 37° C. for 1 hour • 13. Wash the plate (NUNC 384 program) • 14. […] Incubate at 37° C. for 1 hour 16. Wash the plate (NUNC 384 program) 17. […] Incubate at RT for 10 min in the dark 19.

Solanezumab = assay: Cyclic peptide binding ELISA with comparator antibody Solanezumab; settings: FIGS. 7, 22
Experimental: as §1
(§2) Binding of the TAP01 antibody has been assessed to these thioacetal bridged cyclic peptide variants by ELISA (FIGS. 20-22 and Table 5). Binding to comparators antibodies was also assessed.

[2] = Stability comparison of both versions of the constrained cyclic peptide; assay type: physicochemical; settings: listed as thioacetal bridged peptide
TAP01 (MoG1K) antibody = assay: Thioacetal bridged cyclic peptide binding ELISA with TAP01 antibody; design: species or system mouse
Experimental: as §1
(§3) Binding to comparators antibodies was also assessed.
(§4) Binding to comparator antibodies was also assessed (FIG. 26).

ProBioDrug 6_1_6 = assay: Cyclic peptide binding ELISA with comparator antibody ProBioDrug 6_1_6; settings: FIG. 7
Experimental: (§5) • 1. […] Incubate at 4° C. overnight • 3. Wash the plate (NUNC 384 program) • 4. […] Incubate at RT for 1 hour • 6. Wash the plate (NUNC 384 program) • 7. […] Incubate at 4° C. overnight • 9. Wash the plate (NUNC 384 program) • 10. […] Transfer 30 μL/well onto the assay plate • 13. Incubate at 37° C. for 1 hour • 14. Wash the plate (NUNC 384 program) • 15. […] Incubate at 37° C. for 1 hour • 17. Wash the plate (NUNC 384 program) • 18.
as §1
(§6) ProBioDrug 6_1_6 (Deposit No. DSM ACC 2924) and ProBioDrug 24_2_3 (Deposit No. DSM ACC 2926) are described in […].

[3] = tested on: biotinylated cyclised peptide; assay: Sera of actively immunised 5XFAD and Tg4-42 mice, binding ELISA to cyclised peptide; assay type: in vivo, mouse; settings: FIGS. 32 and 33
Experimental: as §1
Animals (SXFAD and Tg4-42 mice) were immunised with thioacetal bridged cyclic peptide 1-14 and sera were screened for binding to biotinylated cyclised peptide as previously described above.

Bapineuzumab = assay: Cyclic peptide binding ELISA with comparator antibody Bapineuzumab
Experimental: as §1, §3, §4

BAN2401 = assay: Cyclic peptide binding ELISA with comparator antibody BAN2401; settings: FIGS. 7, 22
Experimental: as §1, §2

ProBioDrug 24_2_3 = assay: Cyclic peptide binding ELISA with comparator antibody ProBioDrug 24_2_3; settings: FIG. 7
Experimental: as §5, §1, §6

TAP01 antibody = assay: Proline mutated peptide binding to TAP01 antibody using Biacore T200; design: species or system mouse; settings: Biacore T200, FIG. 23
pE3-42 amyloid peptide = assay: Immunisation with disulphide bridged peptide, sera pE3-42 peptide binding ELISA; assay type: in vivo, mice and rabbits; settings: sera after immunisation with disulphide bridged peptide
Experimental: • 1. Coat 384-well plate with 30 μL/well of 100 ng/ml PSL amyloid 1-42 peptide (Human-Peptide Specialty Laboratories-CEM1904161) diluted in carb/bicarb buffer • 2. Incubate at 37° C. for 1 hour • 3. Wash the plate (NUNC 384 program) • 4. […] Incubate at 4° C. overnight • 6. Wash the plate (NUNC 384 program) • 7. […] Transfer 30 μL/well onto the assay plate • 10. Incubate at 37° C. for 1 hour • 11. Wash the plate (NUNC 384 program) • 12. […] Incubate at 37° C. for 1 hour • 14. Wash the plate (NUNC 384 program) • 15. […] Incubate at RT for 10 min in the dark • 17. […] Coat 384-well plate with 30 μL/well of 100 ng/ml PSL amyloid pE3-42 peptide (Human-Peptide Specialty Laboratories-CEM062210 Pyr) diluted in carb/bicarb buffer • 2. Incubate at 37° C. for 1 hour • 3. Wash the plate (NUNC 384 program) • 4. […] Incubate at 4° C. overnight • 6. Wash the plate (NUNC 384 program) • 7. […] Transfer 30 μL/well onto the assay plate • 10. Incubate at 37° C. for 1 hour • 11. Wash the plate (NUNC 384 program) • 12. […] Incubate at 37° C. for 1 hour • 14. Wash the plate (NUNC 384 program) • 15. […] Incubate at RT for 10 min in the dark • 17.

4-42 amyloid peptide = settings: sera after immunisation with disulphide bridged peptide, ELISA
Experimental: • 1. […] Wash the plate (NUNC 384 program) • 4. […] Wash the plate (NUNC 384 program) • 7. […] Incubate at 37° C. for 1 hour • 13. Wash the plate (NUNC 384 program) • 14.

[4] = tested on: disulphide bridged 1-14 cyclic peptide 3, 12; settings: mouse 5 (best immune response), FIG. 8
Experimental: • 1. […] Incubate at 4° C. overnight • 3. Wash the plate (NUNC 384 program) • 4. […] Incubate at RT for 1 hour • 6. Wash the plate (NUNC 384 program) • 7. […] Incubate at 4° C. overnight • 9. Wash the plate (NUNC 384 program) • 10.

DAC*FRHDSGYEC*HH-[Cys]- amide (*S—CH2—S* bridged) [1-14 cyclic peptide (thioacetal bridged)]
titres of response compared with disulphide bridged peptide ([1]; mice): higher titres
serum titre to thioacetal bridged cyclic peptide ([1]; mice 3 and 4, FIG. 13): 1/24300
serum titre to thioacetal bridged cyclic peptide ([1]; mouse 2, FIG. 13): 1/72900
immune response after immunisation ([1]; rabbits and mice, FIG. 13): immune response was generated
binding to comparator antibody Solanezumab (Solanezumab): None of the comparator antibodies tested were able to bind
stability compared with disulphide bridged cyclic peptide [2]: more chemically stable
binding of TAP01 to the cyclic peptide (hairpin epitope) (TAP01 (MoG1K) antibody; FIG. 7): able to bind
binding to comparator antibody ProBioDrug 6_1_6 (ProBioDrug 6_1_6): None of the comparator antibodies tested were able to bind
immune response, sera binding to biotinylated cyclised peptide [3]: good immune response
binding to comparator antibody Bapineuzumab (Bapineuzumab; FIGS. 7, 22, 26, 34): None of the comparator antibodies tested were able to bind
binding to comparator antibody BAN2401 (BAN2401): None of the comparator antibodies tested were able to bind
binding to comparator antibody ProBioDrug 24_2_3 (ProBioDrug 24_2_3): None of the comparator antibodies tested were able to bind

CC(C)[C@H](NC(=O)[C@H](CCC(=O)O)NC(=O)[C@@H]1CSCSC[C@H](N)C(=O)N[C@@H](C)C(=O)N[C@@H](CCC(=O)O)C(=O)N[C@@H](Cc2ccccc2)C(=O)N[C@@H](CCCNC(=N)N)C(=O)N[C@@H](Cc2c[nH]cn2)C(=O)N[C@@H](CC(=O)O)C(=O)N[C@@H](CO)C(=O)NCC(=O)N1)C(=O)N[C@@H](Cc1c[nH]cn1)C(=O)N[C@@H](Cc1c[nH]cn1)C(=O)O [Peptide 1, 10] (H-CAEFRHDSGCEVHH-OH; linker 1-10 via CH2; N-terminus and C-terminus assumed)
EC50 (TAP01 (MoG1K) antibody; TAP01 (MoG1K), FIG. 25, unit inferred, read-out: calculated EC50 value): 12 nM
binding to comparator antibody Bapineuzumab (Bapineuzumab; FIGS. 7, 22, 26, 34): Binding to the comparator antibody Bapineuzumab was seen

DAPFRHDSGYEVHH (Residue 3 (E to P))
binding to TAP01 antibody (TAP01 antibody): no binding observed

CC(C)[C@H](NC(=O)[C@H](CCC(=O)O)NC(=O)[C@@H]1CSCSC[C@H](NC(=O)[C@@H](N)CC(=O)O)C(=O)N[C@@H](CCC(=O)O)C(=O)N[C@@H](Cc2ccccc2)C(=O)N[C@@H](CCCNC(=N)N)C(=O)N[C@@H](Cc2c[nH]cn2)C(=O)N[C@@H](CC(=O)O)C(=O)N[C@@H](CO)C(=O)NCC(=O)N1)C(=O)N[C@@H](Cc1c[nH]cn1)C(=O)N[C@@H](Cc1c[nH]cn1)C(=O)O [Peptide 2, 10] (H-DCEFRHDSGCEVHH-OH; linker 2-10 via CH2)
binding to comparator antibody Solanezumab (Solanezumab): low affinity
EC50 (TAP01 (MoG1K) antibody; TAP01 (MoG1K) binding to thioacetal bridged cyclic peptide variants, Table 5, read-out: EC50): 1.33 nM
binding to comparator antibody Bapineuzumab (Bapineuzumab; FIGS. 7, 22, 26, 34): able to bind
binding to comparator antibody Bapineuzumab (Bapineuzumab; FIGS. 7, 22, 26, 34, listed as cyclic peptide 2, 10): Binding to the comparator antibody Bapineuzumab was seen
binding to comparator antibody BAN2401 (BAN2401): low affinity

DA*CFRHDSGYE*CHH-Biotin (*S—S* bridge) [1-14 cyclic peptide (disulphide bridged)]
sera binding to pE3-42 amyloid peptide (pE3-42 amyloid peptide): Minimal binding
sera binding to 4-42 amyloid peptide (4-42 amyloid peptide): Minimal binding
serum titre to the disulphide bridged cyclic peptide [4]: 1/3200

PPEFRHDSGYEVHH (Residue 1 and 2 (D to P and A to P))
binding to TAP01 antibody (TAP01 antibody): bind in a dose dependant manner

PPPFRHDSGYEVHH (Residue 1, 2 and 3 (D to P and A to P and E to P))
binding to TAP01 antibody (TAP01 antibody): bind in a dose dependant manner

CC(C)[C@H](NC(=O)[C@H](CCC(=O)O)NC(=O)[C@@H]1CSCSC[C@H](N)C(=O)N[C@@H](C)C(=O)N[C@@H](CCC(=O)O)C(=O)N[C@@H](Cc2ccccc2)C(=O)N[C@@H](CCCNC(=N)N)C(=O)N[C@@H](Cc2c[nH]cn2)C(=O)N[C@@H](CC(=O)O)C(=O)N[C@@H](CO)C(=O)NCC(=O)N1)C(=O)N[C@@H](Cc1c[nH]cn1)C(=O)N[C@@H](Cc1c[nH]cn1)C(=O)O [1, 10] (H-CAEFRHDSGCEVHH-OH; linker 1-10 via CH2; N-terminus and C-terminus assumed)
EC50 (TAP01 (MoG1K) antibody; TAP01 (MoG1K) binding to thioacetal bridged cyclic peptide variants, Table 7, read-out: EC50): 12 nM
